Results published in ChEMBL document CHEMBL6103585, “Construction and activity evaluation of novel CHS inhibitors against fungal infections” (Eur J Med Chem, 2025).
≈ marks a conversion by molar mass, not a printed value. Calls of active or inactive are those of the source. No cut-off for these calls is given here.

Experiments:
Candida albicans [1] = test: (§1) In vivo antifungal activity against Candida albicans 901 infected in mouse model assessed as decrease in PD-L1 protein expression level at 5 microg/g, iv pre-infected with fungi by intravenous injection followed by compound administration and measured on day 8 by Western blotting analysis; format: functional, organism-based; details: dose 5.0 µg/g, time 8.0 day
Candida albicans [2] = test: (§2) In vivo antifungal activity against Candida albicans 901 infected in mouse model assessed as body weight gain at 5 microg/g, iv pre-infected with fungi by intravenous injection followed by compound administration and measured on day 8; format: functional, organism-based; details: dose 5.0 µg/g, time 8.0 day
HeLa = test: Cytotoxicity against human HeLa cells incubated for 24 hrs by CCK8 assay; format: functional, cell-based
Candida albicans [3] = test: Fungicidal activity against Candida albicans ATCC SC5314 assessed as live cells (reference value: 92%); format: functional
Candida albicans [4] = test: as §1, with “IFN-gamma” for “PD-L1”, “8 in presence of BPE” for “8”; format: functional, organism-based; details: dose 5.0 µg/g, time 8.0 day
Candida albicans [5] = test: In vivo antifungal activity against Candida albicans 901 infected in mouse model assessed as decrease in IFN-gamma protein expression level at 5 microg/g, iv pre-infected with fungi by intravenous injection followed by compound administration and measured on day 8 by Western blotting analysis; format: functional, organism-based; details: dose 5.0 µg/g, time 8.0 day
Candida albicans [6] = test: Antifungal activity against fluconazole-resistant Candida albicans 632 assessed as reduction in fungal growth incubated for 72 hrs by broth microdilution method; format: functional
Candida albicans [7] = test: Antifungal activity against fluconazole-resistant Candida albicans 901 assessed as reduction in fungal growth incubated for 72 hrs by broth microdilution method; format: functional
Candida albicans [8] = test: In vivo antifungal activity against Candida albicans 901 infected in mouse model assessed as increase in CD4positive expression level in presence of 1-MT; format: functional, organism-based
Candida tropicalis = test: Antifungal activity against Candida tropicalis ATCC 1369 assessed as fungal growth inhibition incubated for 72 hrs by broth microdilution method; format: functional
Nakaseomyces glabratus = test: Antifungal activity against Candida glabrata assessed as fungal growth inhibition incubated for 72 hrs by broth microdilution method; format: functional
[9] = Binding affinity to chitin synthase (unknown origin) assessed as dissociation constant by SPR analysis
Candida albicans [10] = test: as §2, with “reduction in genetic material content in lung” for “body weight gain”, “8 in presence of 1-MT by H and E staining based analysis” for “8”; format: functional, organism-based; details: dose 5.0 µg/g, time 8.0 day
Candida albicans [11] = test: as §1, with “IL-2” for “PD-L1”, “8 in presence of 1-MT” for “8”; format: functional, organism-based; details: dose 5.0 µg/g, time 8.0 day
A549 = test: Cytotoxicity against human A549 cells incubated for 24 hrs by CCK8 assay; format: functional, cell-based; details: A549, 24 h
[12] = Toxicity in mouse infected with Candida albicans 901 assessed as change in ALT level (reference value: 42.8 +/-3.9 IU/L); details: in vivo
Candida albicans [13] = test: (§3) In vivo antifungal activity against Candida albicans 901 infected in mouse model assessed as expansion of alveolar spaces in lung at 5 microg/g, iv pre-infected with fungi by intravenous injection followed by compound administration and measured on day 8 by H and E staining based analysis; format: functional, organism-based; details: dose 5.0 µg/g, time 8.0 day
Candida albicans [14] = test: as §3, with “reduction in genetic material content” for “expansion of alveolar spaces”, “8 in presence of BPE” for “8”; format: functional, organism-based; details: dose 5.0 µg/g, time 8.0 day

O=C(CNC(=O)c1nc2ccc(Cl)cc2c(=O)[nH]1)NCC(=O)c1ccccc1
Activity (Candida albicans [1]): Active | Activity (Candida albicans [2]): Active | IC50 (HeLa): > 50 µM | Activity (Candida albicans [3]): 3% | Activity (Candida albicans [4]): Active | Activity (Candida albicans [5]): Active | MIC50 (Candida albicans [6]): 2 µg/mL (≈ 5.01 µM) | MIC50 (Candida albicans [7]): 4 µg/mL (≈ 10 µM) | Activity (Candida albicans [8]): Active | MIC50 (Candida tropicalis): 0.5 µg/mL (≈ 1.25 µM) | MIC50 (Nakaseomyces glabratus): 2 µg/mL (≈ 5.01 µM) | Kd [9]: 0.00752 µM | Activity (Candida albicans [10]): Active | Activity (Candida albicans [11]): Active | IC50 (A549): > 50 µM | Activity [12]: 33.6 IU/L | Activity (Candida albicans [13]): Active | Activity (Candida albicans [14]): Active
